From patent US9540289B2, “Chelated compositions and methods of making and using the same” (Scott G. Williams, LLC, priority 2010, dated 2017)

Assay: Titration of 1% w/w solution with 0.5 M NaOH until precipitate forms
Type: physicochemical
Protocol: The finished material was tested by titration with 0.5 M NaOH. A 1% w/w solution was made of the material by placing 1.0042 g in a 100 mL of deionized water. 0.5 M NaOH was then titrated into this solution. The material absorbed 23.8 mL of the 0.5 M NaOH while the solution pH rose from about 2 to about 10.2, whereupon a precipitate formed.

zinc EDTA chelate [pure zinc EDTA chelate]
0.5 M NaOH absorbed until a precipitate formed (1% w/w solution in 100 mL deionized water, titrated with 0.5 M NaOH): 5.8 mL
solution pH at which a precipitate formed (1% w/w solution titrated with 0.5 M NaOH): above 10.2
